Data: patent US20160228387A1, “SOLUBILIZED FORMULATION OF COQ10 FOR USE IN TREATMENT OF PARKINSON'S DISEASE” (NATIONAL RESEARCH COUNCIL OF CANADA (NRC), priority 2013, published 2016)
Several values for one entry are separate records, joined by “and”; a condition that tells them apart may be missing. Equal entries are not always repeated.

What was measured:
[1] = Dispersion and stability in water; type: physicochemical; settings: added to water
Excerpt: Based on the chemical structure, a-tocopherol constitutes 35.6% or one-third of the PTS molecule (Borowy-Borowski et al., 2004).

PD patients = settings: clinical trials in humans; cited from earlier work
MPTP-treated mice = assay: Beam walk test (faults) in MPTP-treated mice; settings: MPTP alone (group II), D10
Protocol: As an additional step, the beam walk test, described above, was used to assess motor skills. The handling and training of mice on the test apparatus were performed before the MPTP injections. Mice were acclimatized to the new environment for 7 days (D[-21]-D[-14]) before the handling (D[-14]-D[-7]) and training (D[-7]-D1). Animals were randomly divided into 3 experimental groups (I-III). […] Animals were allowed to cross a 5-mm square and a 100-cm long beam and the number of faults, as well as the time taken to walk the beam, were recorded.

[2] = tested on: TH-positive neurons in SNpc; assay: MPTP-induced neurodegeneration in mice: stereological count of TH-positive neurons in SNpc
Protocol: (§1) To induce the dopaminergic neurodegeneration, male C57BL/6 mice were acclimatized to the new environment for 7 days before the start of the experiment. Animals were randomly divided into experimental groups and given 5 daily injections of MPTP (25 mg/kg/injection). Control mice were injected with saline. On days 5, 8, 14, 28, and 45 after the MPTP injections, mice were sacrificed and brain tissue was collected for immunohistochemistry, stereology, and biochemical analyses. Brains were fixed and immunostained with rabbit polyclonal anti-tyrosine hydroxylase antibody (brown) and counterstained with cresyl violet (blue) for anatomic reference. TH-positive cells were counted using an unbiased stereology method and cell survival was plotted as percentage of control.
Mice were acclimatized for 7 days before the start of the experiment and were randomly divided into 3 experimental groups (I-III). Groups I and II were given regular water throughout the duration of the experiment. […] Groups II and III received 5 daily intraperitoneal injections of MPTP (25 mg/kg/injection) whereas, group I was injected with saline. At the conclusion of the experiment on D28, all animals were sacrificed and brain tissue was collected for immunohistochemistry, sterology, and Western blot.
Mice were acclimatized to the new environment for 7 days before the start of the experiment and were randomly divided into 3 experimental groups (I-III). Control group I was injected with saline and groups II and III received 5 daily MPTP injections (25 mg/kg/injection). […] The supplementation continued until the conclusion of the experiment on D28.
At the conclusion of the experiment on day 28 (D28), all mice were sacrificed and brains were collected for immunohistochemistry and stereology. Brains were fixed and immunostained with rabbit polyclonal anti-tyrosine hydroxylase antibody (brown) and counterstained with cresyl violet (blue) for anatomic reference. Images were captured on an Olympus microscope equipped with Microcast 3CCD 1080p HD color camera system.
(§2) Mice were acclimatized for 7 days before the start of the experiment and were randomly divided into 4 experimental groups (I-IV). Control group I was injected with saline and groups II-IV with MPTP (5×25 mg/kg). Mice in groups I and II were drinking regular water throughout the duration of the experiment. […] At the conclusion of the experiment (D28), all mice were sacrificed and brains were collected for immunohistochemistry, stereology, and biochemistry. Brains were fixed and immunostained with rabbit polyclonal anti-tyrosine hydroxylase antibody and counterstained with cresyl violet. Images were captured on an Olympus microscope equipped with Microcast 3CCD 1080p HD color camera.
Mice were acclimatized to the new environment and were randomly divided into 4 experimental groups (I, II, V, and VI).

striatal dopamine = assay: Striatal dopamine content in MPTP-treated mice
Protocol: as §1, §2

rats exposed to PQ = assay: Horizontal beam-walking test (leg slips) in PQ-treated rats; type: in vivo, rat; settings: PQ alone (PQ3), 1st test phase, p<0.05
Protocol: Deficiency in motor function is a hallmark of PD. Motor skills of the rats treated in Example 2 were assessed using the beam walk test. All rats were assessed for performance on a horizontal beam-walking test for motor skills/motor deficits as measured by leg slips. The aluminium beam was 1.68 metres in length, 2 centimetres in width and 0.75 metres from the ground. A mirror was placed behind the beam, measuring 1.78 metres in length and 0.3 metres in height. Four weeks after the last injection, rats underwent one trial per day for four consecutive days (one training trial and three test trials). Eight weeks after the last injection another three test trials were performed (one trial per day). In the training trial, rats ran down the beam to the holding cage on a flat platform three times, each time with different distances between the holding cage and starting position. The first position was a quarter of the beam length, the second was half, and the last was the entire distance of the beam. […]
Rats received a small slice of apple in the holding cage located on a table at the end of the beam. […] The test trials were recorded using a standard video camera, located 2 metres perpendicular to the beam. The number of hind leg slips made from either leg during each test trial was later noted from viewing the recorded video clips. […]

TH-positive neurons = assay: PQ-induced neurodegeneration in rats: stereological count of TH-positive neurons in midbrain sections; type: in vivo, Long Evans Hooded rats; settings: for total number of TH positive neurons: mean ± SD
Protocol: Long Evans Hooded rats were given 5 intraperitoneal injections of PQ at a dose of 10 mg/kg body weight/injection dissolved in phosphate buffered saline (PBS), one injection every five days over a period of 20 days. Control rats received intraperitoneal injections of PBS alone. Brain tissue was examined immediately after the last PQ injection and, subsequently, 4 weeks and 8 weeks later. […] Fresh drinking solutions were provided every second day. At the conclusion of experimental treatments, rats were perfused with Tyrodes buffer containing heparin, the tissues were fixed with 10% formalin, and the brains extracted and stored in the 10% formalin until processing for immunohistochemistry. Animals were sacrificed at different time points for up to 8 weeks post-PQ exposure. Midbrain sections were prepared, immunostained with anti-tyrosine hydroxylase antibody and TH-positive neurons were counted using a stereologer in an unbiased manner.
The Ubisol-Q10 intervention was applied after the completion of PQ injections described above. By this time, neurodegenerative processes in the brain had already begun. […] This treatment began when nearly 18% of SN neurons were already lost (PQ1 group), but the question was whether the remaining vulnerable neurons could be saved. The midbrain sections were immunostained with anti-TH antibodies, and the stained neurons were counted using a stereologer in an unbiased manner.
There was also significant neuroprotection in the rats that received the Ubisol-Q10 supplemented drinking water for eight weeks post injections.

[3] = vitamin E alone; cited from earlier work

COC1=C(OC)C(=O)C(CC=C(C)CCC=C(C)CCC=C(C)CCC=C(C)CCC=C(C)CCC=C(C)CCC=C(C)CCC=C(C)CCC=C(C)CCC=C(C)C)=C(C)C1=O [CoQ10, 2,3-dimethoxy, 5-methyl, 6-polyisoprene para-benzoquinone]
behaviour in water [1]: floats on the surface as insoluble material | clinical benefit against PD (PD patients): no clinical benefit

CN1CC=C(c2ccccc2)CC1 [MPTP, 1-methyl-4-phenyl-1,2,3,6-tetrahydropyridine]
number of faults on beam walk, average (MPTP-treated mice): ~7 faults | loss of TH-positive neurons ([2]; MPTP alone (5 x 25 mg/kg i.p.), day 28): 51.6% and 50% | number of tyrosine hydroxylase-positive neurons, mean ([2]; MPTP alone (Table 9; control = 100)): 66 | surviving TH neurons (percentage of control) ([2]; MPTP alone, D28 (Table 5)): 50.3 ± 7.3% | survival of TH-positive neurons ([2]; MPTP alone, day 45): 50% | number of TH-positive neurons in SNpc ([2]; MPTP alone, regular water, D28 (Table 6)): 3281 ± 291 and 3320 ± 700 | number of TH positive neurons in SNpc ([2]; MPTP alone, regular water, D56): 4192 ± 295 | striatal dopamine level reduced to (striatal dopamine; MPTP alone (group II), by D28): 50% | striatal dopamine level (striatal dopamine; MPTP alone, D28 (Table 7)): 15.1 ± 2.2 | decrease of striatal dopamine content (striatal dopamine; MPTP alone, by day 28): ~50%

C[n+]1ccc(-c2cc[n+](C)cc2)cc1 [PQ, paraquat]
number of leg slips versus the other three groups (rats exposed to PQ): significantly greater | total number of TH positive neurons (TH-positive neurons; PQ alone (5 x 10 mg/kg i.p.), 0 weeks after last PQ injection (PQ1)): 8722 ± 3559 | loss of DA (TH-positive) neurons versus control (TH-positive neurons; PQ alone, during the PQ injection period (PQ1)): ~18% and ~15% | total number of TH positive neurons (TH-positive neurons; PQ alone, regular water, 4 weeks after PQ injections (PQ2)): 6006 ± 1928 and 6227 ± 1682 | total number of TH positive neurons (TH-positive neurons; PQ alone, regular water, 8 weeks after PQ injections (PQ3)): 5114 ± 1562 and 4661 ± 1097

Cc1c(C)c2c(c(C)c1O)CC[C@@](C)(CCC[C@H](C)CCC[C@H](C)CCCC(C)C)O2 [vitamin E, α-tocopherol]
effect on neuroprotection [3]: did not have a significant effect

polyoxyethanyl-cholesteryl sebacate [PCS]
number of tyrosine hydroxylase-positive neurons, mean ([2]; in drinking water from 2 weeks before to 3 weeks after MPTP injections (Table 9; control = 100)): 58
